Test system: 521955-158-R2-J5-PDC complex spheroid viability
Test: Anticancer human tumor 521955-158-R2-J5-PDC patient-derived pancreatic carcinoma cell line growth inhibition [GQUAD]
Details: for IC50: curve of first compound; for viability, T/C: stronger effect = lower value
How it was run: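 Tumor cells were grown as complex spheroids with HUVEC endothelial cells and mesenchymal stem cells as stroma. G-quadruplex stabilizers were combined with targeted agents over half-log dilutions from near the clinical Cmax, or from 10 microM.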

[1] = second compound 0.0316 µM, first compound 0.0316 µM
[2] = second compound 0.0316 µM, first compound 0.1 µM
[3] = second compound 0.0316 µM, first compound 0.316 µM
[4] = second compound 0.0316 µM, first compound 1 µM
[5] = second compound 0.0316 µM, first compound 3.16 µM
[6] = second compound 0.0316 µM, first compound 10 µM
[7] = second compound 0.1 µM, first compound 0.0316 µM
[8] = second compound 0.1 µM, first compound 0.1 µM
[9] = second compound 0.1 µM, first compound 0.316 µM
[10] = second compound 0.1 µM, first compound 1 µM
[11] = second compound 0.1 µM, first compound 3.16 µM
[12] = second compound 0.1 µM, first compound 10 µM
[13] = second compound 0.316 µM, first compound 0.0316 µM
[14] = second compound 0.316 µM, first compound 0.1 µM
[15] = second compound 0.316 µM, first compound 0.316 µM
[16] = second compound 0.316 µM, first compound 1 µM
[17] = second compound 0.316 µM, first compound 3.16 µM
[18] = second compound 0.316 µM, first compound 10 µM
[19] = second compound 1 µM, first compound 0.0316 µM
[20] = second compound 1 µM, first compound 0.1 µM
[21] = second compound 1 µM, first compound 0.316 µM
[22] = second compound 1 µM, first compound 1 µM
[23] = second compound 1 µM, first compound 3.16 µM
[24] = second compound 1 µM, first compound 10 µM
[25] = second compound 3.16 µM, first compound 0.0316 µM
[26] = second compound 3.16 µM, first compound 0.1 µM
[27] = second compound 3.16 µM, first compound 0.316 µM
[28] = second compound 3.16 µM, first compound 1 µM
[29] = second compound 3.16 µM, first compound 3.16 µM
[30] = second compound 3.16 µM, first compound 10 µM
[31] = second compound 10 µM, first compound 0.0316 µM
[32] = second compound 10 µM, first compound 0.1 µM
[33] = second compound 10 µM, first compound 0.316 µM
[34] = second compound 10 µM, first compound 1 µM
[35] = second compound 10 µM, first compound 3.16 µM
[36] = second compound 10 µM, first compound 10 µM
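Note: spheroids exposed to agents for one week before reading.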
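Throughout, for viability, T/C: 100% = DMSO vehicle control viability.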

For `CC(=O)O[C@H]1C(=O)[C@@]2(C)[C@H]([C@H](OC(=O)c3ccccc3)[C@]3(O)C[C@H](OC(=O)[C@H](O)[C@@H](NC(=O)c4ccccc4)c4ccccc4)C(C)=C1C3(C)C)[C@]1(OC(C)=O)CO[C@@H]1C[C@@H]2O` + Cc1cnc(CNC(=O)c2c(=O)c3ccc(N4CCCN(C)CC4)nc3n3c2sc2ccccc23)cn1, the IC50 (second compound 0.0316 µM) was less than 31.6 nM, the IC50 (second compound 0.1 µM) was less than 31.6 nM and the IC50 (second compound 0.316 µM) was less than 31.6 nM. The IC50 (second compound 1 µM) was less than 31.6 nM, the IC50 (second compound 3.16 µM) was less than 31.6 nM and the IC50 (second compound 10 µM) was less than 31.6 nM. For the same compound, the viability, T/C [1] was 23.3%, the viability, T/C [2] was 14.8% and the viability, T/C [3] was 11.8%. For the same compound, the viability, T/C [4] was 13.7%, the viability, T/C [5] was 11.2% and the viability, T/C [6] was 12.1%. It also gave a viability, T/C [7] of 24.5%, a viability, T/C [8] of 15.2% and a viability, T/C [9] of 15.3%. It also gave a viability, T/C [10] of 10.4%, a viability, T/C [11] of 12% and a viability, T/C [12] of 14.6%. For the same compound, the viability, T/C [13] was 24.6%, the viability, T/C [14] was 16.7% and the viability, T/C [15] was 12.1%. It also gave a viability, T/C [16] of 10.6%, a viability, T/C [17] of 12% and a viability, T/C [18] of 12.1%. It also gave a viability, T/C [19] of 15.1%, a viability, T/C [20] of 11% and a viability, T/C [21] of 8.58%. The viability, T/C [22] was 9.85%, the viability, T/C [23] was 10.3% and the viability, T/C [24] was 8.46%. It also gave a viability, T/C [25] of 9.56%, a viability, T/C [26] of 3.21% and a viability, T/C [27] of 0.92%. For the same compound, the viability, T/C [28] was 0.43%, the viability, T/C [29] was 0.28% and the viability, T/C [30] was 3.89%. It also gave a viability, T/C [31] of 0.14%, a viability, T/C [32] of 2.35% and a viability, T/C [33] of 0.16%. For the same compound, the viability, T/C [34] was 0.27%, the viability, T/C [35] was 2.45% and the viability, T/C [36] was 0.15%.
Compound `CC1COCCN1c1cc(C2(O)CC3CCC(C2)O3)c2cnn(-c3ccn[nH]3)c2n1` (stereo not drawn) + Cc1[nH]c2ccc(F)cc2c1-c1nc2c3cccnc3c3ncccc3c2[nH]1 has an IC50 (second compound 0.0316 µM) of less than 31.6 nM, an IC50 (second compound 0.1 µM) of less than 31.6 nM and an IC50 (second compound 0.316 µM) of less than 31.6 nM. For the same compound, the IC50 (second compound 1 µM) was less than 31.6 nM, the IC50 (second compound 3.16 µM) was less than 31.6 nM and the IC50 (second compound 10 µM) was less than 31.6 nM. For the same compound, the viability, T/C [1] was 32.6%, the viability, T/C [2] was 10.8% and the viability, T/C [3] was 13.3%. It also gave a viability, T/C [4] of 19.7%, a viability, T/C [5] of 19.2% and a viability, T/C [6] of 8.74%. For the same compound, the viability, T/C [7] was 32.5%, the viability, T/C [8] was 11.2% and the viability, T/C [9] was 12.6%. For the same compound, the viability, T/C [10] was 19.3%, the viability, T/C [11] was 20.1% and the viability, T/C [12] was 8.59%. The viability, T/C [13] was 28.1%, the viability, T/C [14] was 11.6% and the viability, T/C [15] was 12.2%. For the same compound, the viability, T/C [16] was 16.5%, the viability, T/C [17] was 20.5% and the viability, T/C [18] was 7.43%. For the same compound, the viability, T/C [19] was 34.3%, the viability, T/C [20] was 10.7% and the viability, T/C [21] was 12.4%. It also gave a viability, T/C [22] of 17.4%, a viability, T/C [23] of 22.9% and a viability, T/C [24] of 10.7%. The viability, T/C [25] was 38.7%, the viability, T/C [26] was 10.7% and the viability, T/C [27] was 13.9%. For the same compound, the viability, T/C [28] was 22.5%, the viability, T/C [29] was 25.4% and the viability, T/C [30] was 8.16%. For the same compound, the viability, T/C [31] was 29.5%, the viability, T/C [32] was 10.6% and the viability, T/C [33] was 15%. For the same compound, the viability, T/C [34] was 20.7%, the viability, T/C [35] was 26.7% and the viability, T/C [36] was 6.74%.
With `COc1cccc2c1C(=O)c1c(O)c3c(c(O)c1C2=O)CC(O)(C(=O)CO)CC3OC1CC(N)C(O)C(C)O1` (stereo not drawn) + Cc1[nH]c2ccc(F)cc2c1-c1nc2c3cccnc3c3ncccc3c2[nH]1 the IC50 (second compound 0.0316 µM) was 150 nM, the IC50 (second compound 0.1 µM) was 193 nM and the IC50 (second compound 0.316 µM) was 188 nM. For the same compound, the IC50 (second compound 1 µM) was 130 nM, the IC50 (second compound 3.16 µM) was 156 nM and the IC50 (second compound 10 µM) was 182 nM. For the same compound, the viability, T/C [1] was 102%, the viability, T/C [2] was 60.3% and the viability, T/C [3] was 31.3%. For the same compound, the viability, T/C [4] was 13.2%, the viability, T/C [5] was 5.72% and the viability, T/C [6] was 0.72%. For the same compound, the viability, T/C [7] was 92.3%, the viability, T/C [8] was 72.2% and the viability, T/C [9] was 32.9%. The viability, T/C [10] was 11%, the viability, T/C [11] was 5.83% and the viability, T/C [12] was 0.27%. For the same compound, the viability, T/C [13] was 88.4%, the viability, T/C [14] was 72.9% and the viability, T/C [15] was 30%. It also gave a viability, T/C [16] of 13.7%, a viability, T/C [17] of 3.99% and a viability, T/C [18] of 0.46%. It also gave a viability, T/C [19] of 90.1%, a viability, T/C [20] of 57.7% and a viability, T/C [21] of 25.4%. For the same compound, the viability, T/C [22] was 14.1%, the viability, T/C [23] was 5.66% and the viability, T/C [24] was 0.41%. For the same compound, the viability, T/C [25] was 85.7%, the viability, T/C [26] was 65.6% and the viability, T/C [27] was 24.5%. For the same compound, the viability, T/C [28] was 17.2%, the viability, T/C [29] was 4.87% and the viability, T/C [30] was 0.33%. For the same compound, the viability, T/C [31] was 97.5%, the viability, T/C [32] was 73.6% and the viability, T/C [33] was 27.5%. For the same compound, the viability, T/C [34] was 12.1%, the viability, T/C [35] was 9.02% and the viability, T/C [36] was 0.29%.
Compound `COc1ccc([C@@H](O)c2cc(-c3ncnc4cc(N5CCOCC5)ccc34)c(F)cc2Cl)nn1` + Cc1cnc(CNC(=O)c2c(=O)c3ccc(N4CCCN(C)CC4)nc3n3c2sc2ccccc23)cn1 has an IC50 (second compound 0.0316 µM) of 292 nM, an IC50 (second compound 0.1 µM) of 225 nM and an IC50 (second compound 0.316 µM) of less than 31.6 nM. For the same compound, the IC50 (second compound 1 µM) was less than 31.6 nM, the IC50 (second compound 3.16 µM) was less than 31.6 nM and the IC50 (second compound 10 µM) was less than 31.6 nM. The viability, T/C [1] was 79.2%, the viability, T/C [2] was 62.5% and the viability, T/C [3] was 53.6%. The viability, T/C [4] was 30.4%, the viability, T/C [5] was 24.8% and the viability, T/C [6] was 25.6%. It also gave a viability, T/C [7] of 65.2%, a viability, T/C [8] of 56.8% and a viability, T/C [9] of 49.1%. It also gave a viability, T/C [10] of 31.7%, a viability, T/C [11] of 30.7% and a viability, T/C [12] of 20.9%. It also gave a viability, T/C [13] of 37.4%, a viability, T/C [14] of 35.3% and a viability, T/C [15] of 37%. It also gave a viability, T/C [16] of 24.5%, a viability, T/C [17] of 24.9% and a viability, T/C [18] of 18.3%. For the same compound, the viability, T/C [19] was 21.7%, the viability, T/C [20] was 20.7% and the viability, T/C [21] was 18.4%. For the same compound, the viability, T/C [22] was 18.2%, the viability, T/C [23] was 18.8% and the viability, T/C [24] was 18.1%. The viability, T/C [25] was 19.5%, the viability, T/C [26] was 20.4% and the viability, T/C [27] was 18.3%. The viability, T/C [28] was 16.9%, the viability, T/C [29] was 15.2% and the viability, T/C [30] was 12%. It also gave a viability, T/C [31] of 18.8%, a viability, T/C [32] of 18.6% and a viability, T/C [33] of 18.3%. It also gave a viability, T/C [34] of 16.8%, a viability, T/C [35] of 14.5% and a viability, T/C [36] of 11.6%.
